From ChEMBL document CHEMBL3885861, “Open TG-GATES”

Organism: Rattus norvegicus
Experiment: Open TG-GATES - Regimen: Single
Type: toxicity, organism-based, Sprague-Dawley
Set-up: regimen Single, gender Male, age 6 weeks
Settings: in vivo, po, route gavage; for APTT / Bas / Eos / Fbg / Hb / Ht / Lym / MCH / MCHC / MCV / Mono / Neu / PT / Plat / RBC / Ret / WBC: tissue Blood; for KIDNEY_L / KIDNEY_R / KIDNEY_TOTAL: tissue Kidney; for LIVER: tissue Liver; for ALP / ALT / AST / BUN / CRE / DBIL / GLC / K / LDH / Na / PL / RALB / TBIL / TC / TG / TP / gamma-GTP: tissue Plasma
[1] = 0 mg/kg, 3 h, dose level Control
[2] = 0 mg/kg, 6 h, dose level Control
[3] = 0 mg/kg, 9 h, dose level Control
[4] = 0 mg/kg, 24 h, dose level Control

## CC(CCc1ccccc1)NCC(O)c1ccc(O)c(C(N)=O)c1 (stereo unspecified) [LABETALOL]
[1]
  TERMINAL_BW: 214.7 g
  APTT: 16 s
  Bas: 0%
  Eos: 1%
  Fbg: 279.6 mg/dL
  Hb: 13 g/dL
  Ht: 38.7%
  Lym: 80.6%
  MCH: 21.4 pg
  MCHC: 33.6%
  MCV: 63.6 fL
  Mono: 3.4%
  Neu: 14.2%
  PT: 13.1 s
  Plat: 108.8 x10_4/uL
  RBC: 608.8 x10_4/ul
  Ret: 8%
  WBC: 90.7 x10_2/uL
  KIDNEY_L: 0.9 g
  KIDNEY_R: 0.9 g
  KIDNEY_TOTAL: 1.8 g
  LIVER: 9.4 g
  ALP: 1611 IU/L
  ALT: 45.8 IU/L
  AST: 77.4 IU/L
  BUN: 11.8 mg/dL
  CRE: 0.2 mg/dL
  DBIL: 0.014 mg/dL
  GLC: 184 mg/dL
  K: 3.8 meq/L
  LDH: 70.6 IU/L
  Na: 142.6 meq/L
  PL: 141.8 mg/dL
  RALB: 2.6 g/dL
  TBIL: 0.048 mg/dL
  TC: 83 mg/dL
  TG: 68.4 mg/dL
  TP: 5.5 g/dL
  gamma-GTP: 1.6 IU/L
[2]
  TERMINAL_BW: 213.8 g
  APTT: 16.4 s
  Bas: 0%
  Eos: 1%
  Fbg: 327.6 mg/dL
  Hb: 13.3 g/dL
  Ht: 39%
  Lym: 72.8%
  MCH: 21.8 pg
  MCHC: 34%
  MCV: 63.9 fL
  Mono: 3.4%
  Neu: 22.2%
  PT: 12.9 s
  Plat: 104.3 x10_4/uL
  RBC: 609.8 x10_4/ul
  Ret: 8.3%
  WBC: 100.8 x10_2/uL
  KIDNEY_L: 0.9 g
  KIDNEY_R: 1 g
  KIDNEY_TOTAL: 1.9 g
  LIVER: 8.9 g
  ALP: 1394.4 IU/L
  ALT: 39.8 IU/L
  AST: 73.2 IU/L
  BUN: 8.6 mg/dL
  CRE: 0.2 mg/dL
  DBIL: 0.004 mg/dL
  GLC: 170.2 mg/dL
  K: 4 meq/L
  LDH: 52.4 IU/L
  Na: 142.6 meq/L
  PL: 136.4 mg/dL
  RALB: 2.5 g/dL
  TBIL: 0.038 mg/dL
  TC: 86.2 mg/dL
  TG: 41.8 mg/dL
  TP: 5.4 g/dL
  gamma-GTP: 1.2 IU/L
[3]
  TERMINAL_BW: 217.8 g
  APTT: 16.8 s
  Bas: 0%
  Eos: 0.8%
  Fbg: 288 mg/dL
  Hb: 13.4 g/dL
  Ht: 39.5%
  Lym: 80.6%
  MCH: 21.7 pg
  MCHC: 33.9%
  MCV: 64 fL
  Mono: 2.4%
  Neu: 15.4%
  PT: 13.5 s
  RBC: 617.2 x10_4/ul
  Ret: 7.6%
  WBC: 96.4 x10_2/uL
  KIDNEY_L: 0.9 g
  KIDNEY_R: 0.9 g
  KIDNEY_TOTAL: 1.8 g
  LIVER: 8.8 g
  ALP: 1362.6 IU/L
  ALT: 39.4 IU/L
  AST: 72.8 IU/L
  BUN: 10.2 mg/dL
  CRE: 0.2 mg/dL
  DBIL: 0.01 mg/dL
  GLC: 175.6 mg/dL
  K: 3.8 meq/L
  LDH: 49.8 IU/L
  Na: 143 meq/L
  PL: 133 mg/dL
  RALB: 2.6 g/dL
  TBIL: 0.046 mg/dL
  TC: 75.8 mg/dL
  TG: 67.6 mg/dL
  TP: 5.5 g/dL
  gamma-GTP: 1.2 IU/L
[4]
  TERMINAL_BW: 220.3 g
  APTT: 16.3 s
  Bas: 0%
  Eos: 1%
  Fbg: 294.8 mg/dL
  Hb: 13 g/dL
  Ht: 38%
  Lym: 78.2%
  MCH: 21.5 pg
  MCHC: 34.1%
  MCV: 63.1 fL
  Mono: 2.6%
  Neu: 17.4%
  PT: 12.8 s
  Plat: 119 x10_4/uL
  RBC: 603.2 x10_4/ul
  Ret: 7.9%
  WBC: 78.3 x10_2/uL
  KIDNEY_L: 0.9 g
  KIDNEY_R: 0.9 g
  KIDNEY_TOTAL: 1.9 g
  LIVER: 10.2 g
  ALP: 1641.6 IU/L
  ALT: 49.8 IU/L
  AST: 75.6 IU/L
  BUN: 15.8 mg/dL
  CRE: 0.2 mg/dL
  DBIL: 0.012 mg/dL
  GLC: 182.2 mg/dL
  K: 4.4 meq/L
  LDH: 59 IU/L
  Na: 141.8 meq/L
  PL: 150.8 mg/dL
  RALB: 2.7 g/dL
  TBIL: 0.03 mg/dL
  TC: 88.4 mg/dL
  TG: 82 mg/dL
  TP: 5.7 g/dL
  gamma-GTP: 1.2 IU/L
45 mg/kg, 3 h, dose level Low
  TERMINAL_BW: 214.4 g
  APTT: 16 s
  Bas: 0%
  Eos: 1%
  Fbg: 265.8 mg/dL
  Hb: 13 g/dL
  Ht: 38.2%
  Lym: 78.2%
  MCH: 22.2 pg
  MCHC: 33.9%
  MCV: 65.5 fL
  Mono: 3.2%
  Neu: 16.6%
  PT: 13.1 s
  Plat: 103.6 x10_4/uL
  RBC: 584 x10_4/ul
  Ret: 8.6%
  WBC: 63.4 x10_2/uL
  KIDNEY_L: 0.9 g
  KIDNEY_R: 0.9 g
  KIDNEY_TOTAL: 1.8 g
  LIVER: 9.7 g
  ALP: 1420.4 IU/L
  ALT: 42.2 IU/L
  AST: 70.8 IU/L
  BUN: 11.6 mg/dL
  CRE: 0.2 mg/dL
  DBIL: 0.014 mg/dL
  GLC: 190.2 mg/dL
  K: 3.8 meq/L
  LDH: 56.2 IU/L
  Na: 143 meq/L
  PL: 147.4 mg/dL
  RALB: 2.6 g/dL
  TBIL: 0.044 mg/dL
  TC: 83.6 mg/dL
  TG: 60.4 mg/dL
  TP: 5.4 g/dL
  gamma-GTP: 1 IU/L
45 mg/kg, 6 h, dose level Low
  TERMINAL_BW: 214.9 g
  APTT: 16.1 s
  Bas: 0%
  Eos: 1%
  Fbg: 287.6 mg/dL
  Hb: 12.8 g/dL
  Ht: 37.8%
  Lym: 75.6%
  MCH: 21.4 pg
  MCHC: 33.8%
  MCV: 63.3 fL
  Mono: 2.4%
  Neu: 20.6%
  PT: 13.1 s
  Plat: 116.3 x10_4/uL
  RBC: 596.4 x10_4/ul
  Ret: 8.2%
  WBC: 76.9 x10_2/uL
  KIDNEY_L: 0.9 g
  KIDNEY_R: 0.9 g
  KIDNEY_TOTAL: 1.9 g
  LIVER: 8.9 g
  ALP: 1402 IU/L
  ALT: 40.2 IU/L
  AST: 73 IU/L
  BUN: 9.6 mg/dL
  CRE: 0.2 mg/dL
  DBIL: 0.01 mg/dL
  GLC: 180.4 mg/dL
  K: 3.9 meq/L
  LDH: 46 IU/L
  Na: 142.8 meq/L
  PL: 135.8 mg/dL
  RALB: 2.5 g/dL
  TBIL: 0.038 mg/dL
  TC: 82.4 mg/dL
  TG: 50.6 mg/dL
  TP: 5.4 g/dL
  gamma-GTP: 1.2 IU/L
45 mg/kg, 9 h, dose level Low
  TERMINAL_BW: 212.6 g
  APTT: 16.8 s
  Bas: 0%
  Eos: 1%
  Fbg: 293.4 mg/dL
  Hb: 12.9 g/dL
  Ht: 38.5%
  Lym: 79.4%
  MCH: 21.3 pg
  MCHC: 33.7%
  MCV: 63.3 fL
  Mono: 1.8%
  Neu: 17.2%
  PT: 13.3 s
  Plat: 106.4 x10_4/uL
  RBC: 608.2 x10_4/ul
  Ret: 8.2%
  WBC: 70.4 x10_2/uL
  KIDNEY_L: 0.9 g
  KIDNEY_R: 0.9 g
  KIDNEY_TOTAL: 1.9 g
  LIVER: 8.1 g
  ALP: 1452.8 IU/L
  ALT: 43.6 IU/L
  AST: 69 IU/L
  BUN: 9.6 mg/dL
  CRE: 0.2 mg/dL
  DBIL: 0.008 mg/dL
  GLC: 184.2 mg/dL
  K: 3.9 meq/L
  LDH: 46.2 IU/L
  Na: 143.6 meq/L
  PL: 136 mg/dL
  RALB: 2.5 g/dL
  TBIL: 0.038 mg/dL
  TC: 81.8 mg/dL
  TG: 39.6 mg/dL
  TP: 5.3 g/dL
  gamma-GTP: 1 IU/L
45 mg/kg, 24 h, dose level Low
  TERMINAL_BW: 226.1 g
  APTT: 16.2 s
  Bas: 0%
  Eos: 1.2%
  Fbg: 284.4 mg/dL
  Hb: 13.5 g/dL
  Ht: 39.1%
  Lym: 78%
  MCH: 21.9 pg
  MCHC: 34.6%
  MCV: 63.3 fL
  Mono: 2.8%
  Neu: 17.6%
  PT: 12.8 s
  Plat: 112.9 x10_4/uL
  RBC: 618.6 x10_4/ul
  Ret: 8.2%
  WBC: 80.8 x10_2/uL
  KIDNEY_L: 1 g
  KIDNEY_R: 1 g
  KIDNEY_TOTAL: 1.9 g
  LIVER: 10.4 g
  ALP: 1933.8 IU/L
  ALT: 53.2 IU/L
  AST: 82.2 IU/L
  BUN: 14.8 mg/dL
  CRE: 0.2 mg/dL
  DBIL: 0.018 mg/dL
  GLC: 181.8 mg/dL
  K: 4.1 meq/L
  LDH: 87.4 IU/L
  Na: 142 meq/L
  PL: 150.8 mg/dL
  RALB: 2.7 g/dL
  TBIL: 0.032 mg/dL
  TC: 81.8 mg/dL
  TG: 119 mg/dL
  TP: 5.7 g/dL
  gamma-GTP: 1.2 IU/L
